Results: publication PMC12369603, “Functional characterization of antennae-enriched chemosensory protein 4 in emerald ash borer, Agrilus planipennis” (PeerJ, 2025)
“And” between values parts separate entries of the source, which are not always exact repeats. Equal values may be shown once. Read-outs that look alike come from different tables or passages of the source.

Experiments:
[1] = test system: Cnaphalocrocis medinalis; design: method as in Cáceres et al., 2016; Sun et al., 2016; conditions: ref Cáceres et al., 2016, Sun et al.; cited from earlier work
[2] = molecular target: T1, recombinant AplaCSP4 (Agrilus planipennis chemosensory protein 4) (Agrilus planipennis, UniProt A0A1W4XLL0); experiment: biochemical; type: binding; conditions: for Competitive binding capability(%) / activity at 2 µM / activity at 4 µM / activity at 6 µM / activity at 8 µM / activity at 10 µM / activity at 12 µM: three replicate columns, 100 at 0 μM; for binding to AplaCSP4 (in words): discussion of fluorescence competitive binding results
Experimental: Specifically, the binding affinities of AplaCSP4 for 43 volatile organic compounds were determined using F-380 fluorescence spectrophotometer (Tianjin, China) with a 10 nm slits and a 1 cm light path. These 43 substances are common green leaf volatiles, among which 16 volatiles originate from the ash tree. […]

[3] = test system: Phyllotreta cruciferae; design: method as in Cáceres et al., 2016; Sun et al., 2016; conditions: ref Cáceres et al., 2016, Sun et al.; cited from earlier work
[4] = molecular target: T1, recombinant AplaCSP4 (Agrilus planipennis chemosensory protein 4); experiment: Binding of fluorescent probe 1-NPN to AplaCSP4 (titration); conditions: 2 µM protein in 50 mM Tris–HCl pH 7.4 titrated with 1-NPN 2-16 µM; read-out: binding affinity constant (KD) between 1-NPN and AplaCSP4
Experimental: Fluorescence competitive binding assays were conducted according to the method described by [Wang et al. (2021)]. Specifically, the binding affinities of AplaCSP4 for 43 volatile organic compounds were determined using F-380 fluorescence spectrophotometer (Tianjin, China) with a 10 nm slits and a 1 cm light path. These 43 substances are common green leaf volatiles, among which 16 volatiles originate from the ash tree. As the fluorescent probe, N-phenyl-1-naphthylamine (1-NPN) was excited at the wavelength of 337 nm, and emission spectra were recorded between 390 and 530 nm. […]

[5] = test system: Mythimna separata; design: method as in Younas et al., 2022; conditions: ref Younas et al., 2022; cited from earlier work
[6] = ligand concentration 2 μM, 2 µM
[7] = ligand concentration 4 μM, 4 µM
[8] = ligand concentration 6 μM, 6 µM
[9] = ligand concentration 8 μM, 8 µM
[10] = ligand concentration 10 μM, 10 µM
[11] = ligand concentration 12 μM, 12 µM
[12] = pH 7.4, read-out: Competitive binding capability(%), ligand concentration 2 μM
[13] = pH 7.4, read-out: Competitive binding capability(%), ligand concentration 4 μM
[14] = pH 7.4, read-out: Competitive binding capability(%), ligand concentration 6 μM
[15] = pH 7.4, read-out: Competitive binding capability(%), ligand concentration 8 μM
[16] = pH 7.4, read-out: Competitive binding capability(%), ligand concentration 10 μM
[17] = pH 7.4, read-out: Competitive binding capability(%), ligand concentration 12 μM
[18] = pH 7.4, ligand concentration 2 μM, read-out: Competitive binding capability(%)
[19] = pH 7.4, ligand concentration 4 μM, read-out: Competitive binding capability(%)
[20] = pH 7.4, ligand concentration 6 μM, read-out: Competitive binding capability(%)
[21] = pH 7.4, ligand concentration 8 μM, read-out: Competitive binding capability(%)
[22] = pH 7.4, ligand concentration 10 μM, read-out: Competitive binding capability(%)
[23] = pH 7.4, ligand concentration 12 μM, read-out: Competitive binding capability(%)
[24] = read-out: K D ±SE (dissociation constant)
[25] = AplaCSP4 and 1-NPN each 2 µM, ligands with minimal binding single experiment, read-out: K D ±SE, “–” = no binding (IC50 >16 μM, KD not calculated)

T1 sequence (A0A1W4XLL0 entry or part of it): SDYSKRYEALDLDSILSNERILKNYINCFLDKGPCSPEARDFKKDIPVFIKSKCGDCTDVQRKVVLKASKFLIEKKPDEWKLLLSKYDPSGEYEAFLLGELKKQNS

For CC(=O)/C=C/C1=C(C)CCCC1(C)C [β-Ionone], the repellent activity [1] is listed as “repellent activity”, the Kd [2] is listed as 4.23 ± 0.07 µM and the “Competitive binding capability(%)” value [2, 6] is listed as 74.4951% and 75.2037%. For the same molecule, the “Competitive binding capability(%)” value [2, 7] was 60.2358% and 60.8061%, the “Competitive binding capability(%)” value [2, 8] was 50.2199% and 51.0303% and the “Competitive binding capability(%)” value [2, 9] was 42.8154% and 43.7153%. The “Competitive binding capability(%)” value [2, 10] was 37.3498% and 38.224%, the “Competitive binding capability(%)” value [2, 11] was 33.5198% and 33.2165% and the activity at 2 µM [2, 12] was 75.8%. It also gave an activity at 4 µM [2, 13] of 61.2%, an activity at 6 µM [2, 14] of 51.9% and an activity at 8 µM [2, 15] of 45%. The activity at 10 µM [2, 16] was 38.5%, the activity at 12 µM [2, 17] was 34.6% and the repellent activity [3] was “repellent activity”.
In the case of CCCCCCOC(=O)CCC [Hexyl butyrate], the “Competitive binding capability(%)” value [2, 6] is reported as 93.4207% and 91.053%, the “Competitive binding capability(%)” value [2, 7] is reported as 84.76% and 83.3555% and the “Competitive binding capability(%)” value [2, 8] is reported as 77.5021% and 75.6266%. For the same molecule, the “Competitive binding capability(%)” value [2, 9] was 71.3681% and 69.2316%, the “Competitive binding capability(%)” value [2, 10] was 65.618% and 62.7841% and the “Competitive binding capability(%)” value [2, 11] was 61.0388% and 57.6483%. The activity at 2 µM [2, 18] was 93.1%, the activity at 4 µM [2, 19] was 85.4% and the activity at 6 µM [2, 20] was 78.8%. The activity at 8 µM [2, 21] was 72.2%, the activity at 10 µM [2, 22] was 65.8% and the activity at 12 µM [2, 23] was 61.7%. For the same molecule, the Kd [2, 24] was 11.5 ± 0.42 µM.
In the case of C=CC(O)CCCCC (stereo not shown) [1-Octen-3-ol], the IC50 [2] is reported as over 16 µM.
c1ccc(Nc2cccc3ccccc23)cc1 [1-NPN, N-phenyl-1-naphthylamine] showed a Kd [4] of 9.36 µM.
In the case of CCC/C=C/C=O [trans-2-Hexenal], the IC50 [2] is reported as over 16 µM.
Work on CCCCCC=O [Hexanal] yielded an IC50 [2] of over 16 µM.
CCCCCCCCC=O [Nonanal] gave an IC50 [2, 25] of over 16 µM.
With CCC/C=C/COC(C)=O [trans-2-Hexenyl acetate] the IC50 [2, 25] was over 16 µM.
Work on CCCC/C=C/C=O [trans-2-Heptenal] yielded an IC50 [2, 25] of over 16 µM.
With CCCCC(C)=O [2-Hexanone] the IC50 [2] was over 16 µM.
For C=CC(=C)CCC=C(C)C [Myrcene], the “binding to AplaCSP4 (in words)” value [2] was “binding capabilities”, the “Competitive binding capability(%)” value [2, 6] was 93.6207% and 95.326% and the “Competitive binding capability(%)” value [2, 7] was 85.4868% and 89.2675%. The “Competitive binding capability(%)” value [2, 8] was 76.2875% and 80.8277%, the “Competitive binding capability(%)” value [2, 9] was 67.6403% and 72.2022% and the “Competitive binding capability(%)” value [2, 10] was 61.2276% and 66.6056%. For the same molecule, the “Competitive binding capability(%)” value [2, 11] was 55.297% and 60.7518%, the activity at 2 µM [2, 18] was 93.4% and the activity at 4 µM [2, 19] was 87%. It also gave an activity at 6 µM [2, 20] of 75.3%, an activity at 8 µM [2, 21] of 66.9% and an activity at 10 µM [2, 22] of 61.1%. For the same molecule, the activity at 12 µM [2, 23] was 54.9% and the Kd [2, 24] was 9.9 ± 0.34 µM.
Work on C=CCc1ccc(O)c(OC)c1 [Eugenol] yielded an IC50 [2] of over 16 µM.
With CCCCCCCC [n-Octane] the “Competitive binding capability(%)” value [2, 6] was 86.2111% and 85.0437%, the “Competitive binding capability(%)” value [2, 7] was 71.3083% and 70.0543% and the “Competitive binding capability(%)” value [2, 8] was 57.8901% and 54.2819%. For the same molecule, the “Competitive binding capability(%)” value [2, 9] was 46.7227% and 42.7241%, the “Competitive binding capability(%)” value [2, 10] was 38.967% and 35.7057% and the “Competitive binding capability(%)” value [2, 11] was 32.7961% and 31.347%. It also gave an activity at 2 µM [2, 12] of 86%, an activity at 4 µM [2, 13] of 67.9% and an activity at 6 µM [2, 14] of 56.4%. For the same molecule, the activity at 8 µM [2, 15] was 45%, the activity at 10 µM [2, 16] was 38.2% and the activity at 12 µM [2, 17] was 31.4%. It also gave a Kd [2, 24] of 4.83 ± 0.11 µM.
In the case of C=CC(C)(O)CCC=C(C)CCC=C(C)C (mixture of isomers) [Nerolidol], the attractive activity [5] is given as “attractive activity”, the “binding to AplaCSP4 (in words)” value [2] is given as “particularly high binding affinity” and the “Competitive binding capability(%)” value [2, 6] is given as 51.463% and 50.752%. The “Competitive binding capability(%)” value [2, 7] was 34.5446% and 32.1031%, the “Competitive binding capability(%)” value [2, 8] was 25.4151% and 25.0577% and the “Competitive binding capability(%)” value [2, 9] was 20.9595% and 20.5391%. For the same molecule, the “Competitive binding capability(%)” value [2, 10] was 17.6278% and 17.3179%, the “Competitive binding capability(%)” value [2, 11] was 15.4258% and 15.6099% and the activity at 2 µM [2, 18] was 49.2%. The activity at 4 µM [2, 19] was 35.3%, the activity at 6 µM [2, 20] was 25.6% and the activity at 8 µM [2, 21] was 21.1%. For the same molecule, the activity at 10 µM [2, 22] was 17.9%, the activity at 12 µM [2, 23] was 16.1% and the Kd [2, 24] was 1.38 ± 0.03 µM.
CC(C)=CCCC(C)=CC=O (mixture of isomers) [Citral] gave an IC50 [2] of over 16 µM.
C=C(C)[C@@H]1CC=C(C)C(=O)C1 [(R)-(-)-Carvone] showed an IC50 [2] of over 16 µM.
With CCCCC=O [Valeraldehyde] the IC50 [2, 25] was over 16 µM.
With (±)-Citronellal the IC50 [2, 25] was over 16 µM.
For CCCCCCO [1-Hexanol], the IC50 [2] was over 16 µM.
For CC12CCC(CC1)C(C)(C)O2 [1,8-Cineole], the IC50 [2] was over 16 µM.
CC/C=C\CCOC(=O)C(C)C [cis-3-Hexenyl isobutyrate] gave an IC50 [2, 25] of over 16 µM.
C=C1CCC2CC1C2(C)C (stereo not drawn) [(-)-β-Pinene] gave an IC50 [2, 25] of over 16 µM.
Molecule CCCCCCCCCCCCCC [Tetradecane] has an IC50 [2, 25] of over 16 µM.
